Assay results from patent US20070082956A1, “The use of 1-amino-alkylcyclohexane compounds in the treatment of pain hypersensitivity” (MERZ PHARMA GmbH & Co. KGaA, priority 2003, published 2007).

Tested on: intradermal capsaicin injection model (secondary hyperalgesia)
Assay: Human surrogate model of neuropathic pain (intradermal capsaicin injection), placebo-controlled double-blind crossover study
Format: in vivo
Protocol: This surrogate model of neuropathic pain is thus a valid method for early clinical testing of substances for the treatment of neuropathic pain. The efficacy of the neramexane, a moderate affinity, uncompetitive NMDA receptor antagonist, was tested in a placebo-controlled double-blind crossover study in the intradermal capsaicin injection model. Capsaicin (40 μg) was injected intradermally in the skin of the ventral forearm 3 hours after administration of a single oral dose of neramexane hydrochloride (40 mg) or placebo. Changes of pain sensitivity adjacent to the capsaicin injection and in a remote control area were tested in parallel by quantitative sensory testing prior to oral neramexane or placebo, 2½ hours after neramexane or placebo (i.e., prior to capsaicin injection) and 1½ hours after capsaicin injection. The capsaicin injection elicited a strong, over 5-10 min rapidly declining burning pain resulting in enhanced pain sensitivity adjacent to the injection including hyperalgesia to pin prick and pain to light touch (“allodynia”).

CC1(C)CC(C)(C)CC(C)(N)C1 [neramexane, 1-amino-1,3,3,5,5-pentamethylcyclohexane]
size of the capsaicin-induced axon reflex erythema (single oral dose 40 mg): remained unaltered
summation of pain to repetitive pin prick stimulation (trains of 10 stimuli at 1 Hz) (single oral dose 40 mg): never changed
reduction of capsaicin-induced burning pain compared to placebo (single oral dose 40 mg, 2nd-5th min after capsaicin injection, n.s.): 33%
reduction of pain to stroking light touch stimuli (allodynia) (single oral dose 40 mg, across all test times, p=0.07): 22%
reduction of pain of noxious pin pricks compared to placebo (analgesia) (single oral dose 40 mg, control area at any time and test area before capsaicin injection, p<0.001): 27-31%
reduction of pain to stroking light touch stimuli (allodynia) (single oral dose 40 mg, first 30 min after capsaicin injection, p<0.05): 25%
antihyperalgesia alone, calculated from the ratio of test and control area (single oral dose 40 mg, not significant): 9%
reduction of pin prick pain compared to placebo (combined analgesia and antihyperalgesia) (single oral dose 40 mg, test area after capsaicin injection, p<0.001): 39%
reduction of capsaicin-induced burning pain compared to placebo (single oral dose neramexane hydrochloride 40 mg, 3 hours before capsaicin 40 μg intradermal, first minute after injection, p<0.01): 21%
